Read-outs that look alike come from different tables or passages of the source. Where a SMILES comes first, the peptide text is derived from it. [ ]: non-standard residue; d: D form. The star is where a group is joined. Dolaproine = CO[C@@H]([C@@H]1CCCN1)[C@@H](C)C(=O)O; Dil = CC[C@H](C)[C@H](NC)[C@@H](CC(=O)O)OC; X1 = C[C@@H](N*)[C@@H](O)c1ccccc1; NMeV = CN[C@H](C(=O)O)C(C)C
Key:
Format in all cases: cell-based
[1] = test system: Caski (a cervical cancer cell line); assay: In-vitro cell viability assay (CellTiter-Glo); details: Homo sapiens, Ca-Ski, 144 h
[2] = test system: MCF-7 (a breast cancer cell line); assay: In-vitro cell viability assay (CellTiter-Glo); details: MCF7a, 144 h
[3] = test system: A431 (a skin cancer cell line); assay: In-vitro cell viability assay (CellTiter-Glo); details: Homo sapiens, A-431, 144 h
[4] = test system: T47D (a breast cancer cell line); assay: cells; details: Homo sapiens, 144 h
[5] = test system: KYSE-520 (an esophageal cancer cell line); assay: In-vitro cell viability assay (CellTiter-Glo); details: Homo sapiens
[6] = test system: HPAF-II (a pancreatic cancer cell line); assay: In-vitro cell viability assay (CellTiter-Glo); details: Homo sapiens, 144 h
[7] = 6 days incubation, read-out: IC50

SMILES | IC50 ([1]; Caski, 6 days incubation, read-out: IC50) [nM] | IC50 ([2]; MCF-7, 6 days incubation, read-out: IC50) [nM] | IC50 ([3]; A431, 6 days incubation, read-out: IC50) [nM] | IC50 [4, 7] [nM] | IC50 ([5]; 144 h, KYSE-520, 6 days incubation, read-out: IC50) [nM] | IC50 [6, 7] [nM] | IC50 [1] [nM] | IC50 [2] [nM] | IC50 [3] [nM] | IC50 [4] [nM] | IC50 ([5]; KYSE-520, 144 h) [nM] | IC50 [6] [nM]
CC[C@H](C)[C@@H]([C@@H](CC(=O)N1CCC[C@H]1[C@H](OC)[C@@H](C)C(=O)N[C@H](C)[C@@H](O)c1ccccc1)OC)N(C)C(=O)[C@@H](NC(=O)[C@@H](NC)C(C)C)C(C)C [MMAE, monomethyl auristatin E] (H-[NMeV]V[Dil][Dolaproine]-X1) | 0.034 | 0.82 | 0.032 | 0.16 | 0.12 | 0.045 | – | – | – | – | – | –
CC[C@@]1(O)C(=O)OCc2c1cc1n(c2=O)Cc2c-1nc1cc3c(c4c1c2[C@@H](NC(=O)[C@@H](C)O)CC4)OCO3 [PBX-7016] | – | – | – | – | – | – | 0.75 | 6.02 | 1.94 | 0.46 | 2.06 | 2.87

Reference: patent EP4796130A1, “ANTI-TISSUE FACTOR ANTIBODY-DRUG CONJUGATE COMPRISING CAMPTOTHECIN DERIVATIVE” (Celltrion, Inc., priority 2023, dated 2025)
